In article PMC8539612, “Enzymatic Synthesis of Novel Vitexin Glucosides” (Molecules, 2021):
Converted amounts (≈) assume the structure as drawn.

Key:
[1] = set-up: method as in PMID 32292045; details: poor bioavailability; cited from earlier work
[2] = Determination of aqueous solubility (vortex 1 h at 25 °C, centrifugation, filtration, HPLC); format: physicochemical; details: for solubility at 1 h: thermodynamic from solid; for Aqueous solubility compared with vitexin: at different pH
Procedure: HPLC was performed with an Agilent® 1100 series HPLC system (Santa Clara, CA, USA) equipped with a gradient pump (Waters 600, Waters, Milford, MA, USA). The stationary phase was a C18 column (Sharpsil H-C18, 5 μm, 4.6 i.d. × 250 mm, Sharpsil, Bei-jing, China), and the mobile phase was 1% acetic acid in water (A) and methanol (B). The elution condition was a linear gradient from 0 min with 40% B to 20 min with 70% B; an isocratic elution from 20 min to 25 min with 70% B; a linear gradient from 25 min with 70% B to 28 min with 40% B; and an isocratic elution from 28 min to 35 min with 40% B. All elutions were performed at a flow rate of 1 mL/min. The sample volume was 10 µL. The detection condition was set at 254 nm.
The aqueous solubility of vitexin and its glucoside derivatives was examined as follows. Each compound was vortexed in double-deionized H2O, PB at pH 6, or pH 8, for 1 h at 25 °C. The mixture was centrifuged at 10,000× g for 30 min at 25 °C. The supernatant was filtered through a 0.2 µm nylon membrane, mixed with an equal volume of methanol, and analyzed by HPLC. The concentration of the tested compounds was determined on the basis of their peak areas, using calibration curves prepared by HPLC analyses of authentic samples.

[3] = PB (buffer), aqueous buffer, PB at pH 6, 25 °C
[4] = PB (buffer), aqueous buffer, PB at pH 8, 25 °C
[5] = double-deionized water, water, Deionized H2O at pH 7, 25 °C

solubility at 1 h [2, 3] [µg/mL]	solubility at 1 h [2, 4] [µg/mL]	Fold increase in aqueous solubility relative to vitexin in deionized H2O (normalized to 1) ([2]; PB at pH 6)	Fold increase in aqueous solubility relative to vitexin in deionized H2O (normalized to 1) ([2]; PB at pH 8)	solubility at 1 h [2, 5] [µg/mL]	Aqueous solubility compared with vitexin [2]	Compound	Absorption in the gastrointestinal tract [1]	Fold increase in aqueous solubility relative to vitexin in deionized H2O (normalized to 1) ([2]; Deionized H2O at pH 7)
943 ± 212 (≈ 1590 µM)	1800 ± 229 (≈ 3030 µM)	25.3	48.4	941 ± 68.7 (≈ 1580 µM)	higher than that of vitexin	O=c1cc(-c2ccc(OC3OC(CO)C(O)C(O)C3O)cc2)oc2c(C3OC(CO)C(O)C(O)C3O)c(O)cc(O)c12 (stereo not drawn) [Vitexin-4′-O-β-glucoside (1), vitexin-4′-O-β-glucoside]	–	25.3
444 ± 45 (≈ 747 µM)	767 ± 21.6 (≈ 1290 µM)	11.9	20.6	735 ± 51.7 (≈ 1240 µM)	higher than that of vitexin	O=c1cc(-c2ccc(O)cc2)oc2c(C3OC(CO)C(O)C(O)C3O)c(O)cc(OC3OC(CO)C(O)C(O)C3O)c12 (stereo not drawn) [Vitexin-5-O-β-glucoside (2), vitexin-5-O-β-glucoside]	–	–

Compound	solubility at 1 h [2, 3] [µg/mL]	solubility at 1 h [2, 4] [µg/mL]	Fold increase in aqueous solubility relative to vitexin in deionized H2O (normalized to 1) ([2]; PB at pH 6)	Fold increase in aqueous solubility relative to vitexin in deionized H2O (normalized to 1) ([2]; PB at pH 8)	solubility at 1 h [2, 5] [µg/mL]	Aqueous solubility compared with vitexin [2]	Absorption in the gastrointestinal tract [1]	Fold increase in aqueous solubility relative to vitexin in deionized H2O (normalized to 1) ([2]; Deionized H2O at pH 7)
O=c1cc(-c2ccc(O)cc2)oc2c([C@@H]3O[C@H](CO)[C@@H](O)[C@H](O)[C@H]3O)c(O)cc(O)c12 [Vitexin, apigenin-8-C-glucoside]	7.1 ± 1.2 (≈ 16.4 µM)	157 ± 3.1 (≈ 364 µM)	0.2	4.2	37.2 ± 2.8 (≈ 86 µM)	–	approximately 5%	1
